# Assay results from patent US6395526B1, “DNA polymerase” (Takara Shuzo Co., Ltd., priority 1995, dated 2002).
# Entries after “also recorded” stand apart in the source; their conditions may differ.
# What was measured:
# M13-HT Primer = assay: Primer extension reaction (autoradiogram, FIG. 6); format: biochemical; details: for inhibition of primer extension by activated DNA as competitor substrate: activated DNA added in great excess
# Procedure: The primer extension activity was further investigated extensively. The M13-HT Primer, previously labeled with [γ-^32P]-ATP (manufactured by Amersham) and T4 polynucleotide kinase (manufactured by Takara Shuzo Co., Ltd.) at the 5′-end, was used as a substrate. Ten microliters of a reaction mixture [20 mM Tris-HCl (pH 7.7), 15 mM MgCl2, 2 mM 2-mercaptoethanol, 270 μM each of dATP, dGTP, dCTP and dTTP] containing the above substrate in a final concentration of […] and various DNA polymerases in amounts providing 0.05 units of activity as assayed with the activated DNA as a substrate was reacted at 75° C. for 1, 2, 3, or 4 minutes. After termination of the reaction, 2 μl of a reaction stop solution (95% […], 20 mM EDTA, 0.05% bromophenol blue, 0.05% xylenecyanol) was added, subjected to thermal denaturation treatment at 95° C. for 3 minutes. Two microliters of the reaction mixture was then subjected to electrophoresis using polyacrylamide gel containing 8 M urea and subsequently subjected to a preparation of autoradiogram. Also, in order to examine the extension activity in the presence of the activated DNA as a competitor substrate, the activated DNA was added to the above reaction mixture to a final concentration of […], and subjected to a preparation of an autoradiogram by the same procedures as described above.
# In the figure, Pol, Pfu, and Taq show the results for the DNA polymerase of the present invention, the Pfu DNA polymerase and the Taq DNA polymerase, respectively. In addition, 1, 2, 3, and 4 each indicates reaction time (min). In the figure, the representation “−” and “+” show the results obtained in the absence and in the presence, respectively, of the activated DNA. The lanes G, A, T, and C at the left end of the figure also show the results of electrophoresis of the reaction products obtained by a chain termination reaction by the dideoxy method using the same substrate as above, which were used to estimate the length of each extension product.
# [1] = system: gapped duplex plasmid (pUC118 vector); assay: Accuracy of DNA synthesis reaction (white colony formation); format: biochemical; details: 0.5 units DNA polymerase, 70° C. for 10 minutes
# Procedure: The accuracy of DNA synthesis reaction by DNA polymerases was examined using a pUC118 vector (manufactured by Takara Shuzo Co., Ltd.), partially made single stranded (gapped duplex plasmid, as a template. The single stranded pUC118 vector was prepared by the method described in Molecular Cloning: A Laboratory Manual, 2nd ed., 4.44-4.48, published by Cold Spring Harbor Laboratory in 1989, edited by T. Maniatis et al., using a helper phage M13KO7 (manufactured by Takara Shuzo Co., Ltd.) with Escherichia coli MV1184 (manufactured by Takara Shuzo Co., Ltd.) as a host. The double stranded DNA was prepared by digesting the pUC118 vector with PvuII (manufactured by Takara Shuzo Co., Ltd.), subjecting the digested vector to agarose gel electrophoresis, and recovering a DNA fragment of about 2.8 kbp.
# One microgram of the above single stranded DNA and 2 μg of the double stranded DNA were mixed to make 180 μl of a mixture with sterile distilled water, and the solution was then incubated at 70° C. for 10 minutes. Thereafter, twenty microliters of 20×SSC was added to the resulting mixture, and the mixture was further kept standing at 60° C. for 10 minutes. The DNA was recovered by subjecting to ethanol precipitation. […] The white or blue colonies formed on the plate were counted, and the formation rate of white colonies which were resulted from a DNA synthesis error was calculated.
Substance,"primer extension activity (M13-HT Primer; M13-HT Primer, 75° C., 1-4 min, compared with Pfu and Taq DNA polymerases)",inhibition of primer extension by activated DNA as competitor substrate (M13-HT Primer),white colony formation rate (DNA synthesis error) [1]
"DNA Polymerase of the Present Invention: complex of first (ORF3, SEQ ID NO:2) and second (ORF4, SEQ ID NO:4) DNA polymerase-constituting proteins from Pyrococcus furiosus",superior primer extension activity,unlikely to be inhibited; also recorded: inhibited at a low level,1.61%
"Taq DNA Polymerase: Taq DNA polymerase derived from Thermus aquaticus (TaKaRa Taq, manufactured by Takara Shuzo Co., Ltd.) [reference compound]",–,markedly inhibited; also recorded: strongly inhibited,3.18%
